According to ChEMBL document CHEMBL4011641, “Prodrugs of Pyrazolo[3,4-d]pyrimidines: From Library Synthesis to Evaluation as Potential Anticancer Agents in an Orthotopic Glioblastoma Model” (J Med Chem, 2017):
In brackets after ≈: the same amount, converted by molar mass.

Key:
[1] = Plasma clearance in BALB/C mouse at 50 mg/kg, ip administered via bolus dose using DMSO formulation measured at 1 to 24 hrs post dose by UV/LC-MS analysis; format: ADME, organism-based
Liver = assay: Drug uptake in BALB/C mouse liver at 50 mg/kg, ip via bolus administration measured at 24 hrs post dose by UV/LC-MS; format: ADME, organism-based; details: in vivo
[2] = Metabolic stability in mouse liver microsomes assessed as unmetabolized compound remaining at 50 uM after 1 hr in presence of NADPH regenerating system by UV/LC-MS analysis; format: ADME, microsome; details: read-out: Stability
[3] = AUC (0 to infinity) in BALB/C mouse at 50 mg/kg, ip administered via bolus dose using DMSO formulation measured at 1 to 24 hrs post dose by UV/LC-MS analysis; format: ADME, organism-based; set-up: dose 50 mg/kg, time infinity, route intraperitoneal; details: in vivo
Mus musculus [4] = assay: MRT in BALB/C mouse assessed as N-(3-bromophenyl)-1-(2-chloro-2-phenylethyl)-6-(2-morpholinoethylthio)-1H-pyrazolo[3,4-d]pyrimidin-4-amine level at 50 mg/kg, ip administered via bolus dose using DMSO formulation measured at 1 to 24 hrs post dose by UV/LC-MS analysis; format: ADME, organism-based; details: in vivo
Mus musculus [5] = assay: MRT in BALB/C mouse assessed as N-(3-bromophenyl)-1-(2-chloro-2-phenylethyl)-6-(2-morpholinoethylthio)-1H-pyrazolo[3,4-d]pyrimidin-4-amine level at 50 mg/kg administered through oral gavage as methylcellulose formulation measured at 1 to 24 hrs post dose by UV/LC-MS analysis; format: ADME, organism-based; details: in vivo
[6] = Tmax in BALB/C mouse at 50 mg/kg, ip administered via bolus dose using DMSO formulation measured at 1 to 24 hrs post dose by UV/LC-MS analysis; format: ADME, organism-based; details: in vivo
Mus musculus [7] = assay: Half life in BALB/C mouse assessed as N-(3-bromophenyl)-1-(2-chloro-2-phenylethyl)-6-(2-morpholinoethylthio)-1H-pyrazolo[3,4-d]pyrimidin-4-amine level at 50 mg/kg administered through oral gavage as methylcellulose formulation measured at 1 to 24 hrs post dose by UV/LC-MS analysis; format: ADME, organism-based; details: in vivo
[8] = Plasma concentration in BALB/C mouse at 50 mg/kg, ip via bolus administration measured at 24 hrs post dose by UV/LC-MS; format: ADME, organism-based
Mus musculus [9] = assay: AUC (0 to 24 hrs) in BALB/C mouse assessed as N-(3-bromophenyl)-1-(2-chloro-2-phenylethyl)-6-(2-morpholinoethylthio)-1H-pyrazolo[3,4-d]pyrimidin-4-amine level at 50 mg/kg administered through oral gavage as methylcellulose formulation measured at 1 to 24 hrs post dose by UV/LC-MS analysis; format: ADME, organism-based; set-up: dose 50 mg/kg, time < 24 hr, route oral; details: in vivo
physchem [10] = details: aqueous
Description: Aqueous solubility of compound at 1 mg after 24 hrs by UV/LC-MS analysis

[11] = Drug uptake in BALB/C mouse adipose tissue at 50 mg/kg, ip via bolus administration measured at 24 hrs post dose by UV/LC-MS; format: ADME, organism-based; details: in vivo
[12] = Metabolic stability in human liver microsomes assessed as parent compound remaining at 50 uM after 1 hr in presence of NADPH regenerating system by UV/LC-MS analysis; format: ADME, microsome; details: read-out: Stability
Mus musculus [13] = assay: Tmax in BALB/C mouse assessed as N-(3-bromophenyl)-1-(2-chloro-2-phenylethyl)-6-(2-morpholinoethylthio)-1H-pyrazolo[3,4-d]pyrimidin-4-amine level at 50 mg/kg, ip administered via bolus dose using DMSO formulation measured at 1 to 24 hrs post dose by UV/LC-MS analysis; format: ADME, organism-based; details: in vivo
cells [14] = details: Homo sapiens, U-87 MG, 24 h
Description: Cytotoxicity against human U87 cells assessed as reduction in cell viability after 24 hrs by trypan blue assay

[15] = MRT in BALB/C mouse at 50 mg/kg, ip administered via bolus dose using DMSO formulation measured at 1 to 24 hrs post dose by UV/LC-MS analysis; format: ADME, organism-based; details: in vivo
Mus musculus [16] = assay: AUC (0 to 24 hrs) in BALB/C mouse assessed as N-(3-bromophenyl)-1-(2-chloro-2-phenylethyl)-6-(2-morpholinoethylthio)-1H-pyrazolo[3,4-d]pyrimidin-4-amine level at 50 mg/kg, ip administered via bolus dose using DMSO formulation measured at 1 to 24 hrs post dose by UV/LC-MS analysis; format: ADME, organism-based; set-up: dose 50 mg/kg, time < 24 hr, route intraperitoneal; details: in vivo
Mus musculus [17] = assay: Half life in BALB/C mouse assessed as N-(3-bromophenyl)-1-(2-chloro-2-phenylethyl)-6-(2-morpholinoethylthio)-1H-pyrazolo[3,4-d]pyrimidin-4-amine level at 50 mg/kg, ip administered via bolus dose using DMSO formulation measured at 1 to 24 hrs post dose by UV/LC-MS analysis; format: ADME, organism-based; details: in vivo
Kidney = assay: Drug uptake in BALB/C mouse kidney at 50 mg/kg, ip via bolus administration measured at 24 hrs post dose by UV/LC-MS; format: ADME, organism-based; details: in vivo
[18] = Cmax in BALB/C mouse at 50 mg/kg, ip administered via bolus dose using DMSO formulation measured at 1 to 24 hrs post dose by UV/LC-MS analysis; format: ADME, organism-based; set-up: dose 50 mg/kg, route intraperitoneal; details: in vivo
Mus musculus [19] = assay: Cmax in BALB/C mouse assessed as N-(3-bromophenyl)-1-(2-chloro-2-phenylethyl)-6-(2-morpholinoethylthio)-1H-pyrazolo[3,4-d]pyrimidin-4-amine level at 50 mg/kg administered through oral gavage as methylcellulose formulation measured at 1 to 24 hrs post dose by UV/LC-MS analysis; format: ADME, organism-based; set-up: dose 50 mg/kg, route oral; details: in vivo
Mus musculus [20] = assay: Plasma clearance in BALB/C mouse assessed as N-(3-bromophenyl)-1-(2-chloro-2-phenylethyl)-6-(2-morpholinoethylthio)-1H-pyrazolo[3,4-d]pyrimidin-4-amine level at 50 mg/kg, ip administered via bolus dose using DMSO formulation measured at 1 to 24 hrs post dose by UV/LC-MS analysis; format: ADME, organism-based; details: in vivo
[21] = Antitumor activity against human U87 cells xenografted in nude immunodeficient CD1 mouse assessed as mean survival time at 50 mg/kg, po administered every other day (reference value: 30 day); format: functional, U-87MG ATCC
physchem [22] = details: PAMPA
Description: Apparent permeability at 500 uM after 5 hrs by Blood-Brain Barrier-based PAMPA

Brain = assay: Drug uptake in BALB/C mouse brain at 50 mg/kg, ip via bolus administration measured at 24 hrs post dose by UV/LC-MS analysis; format: ADME, organism-based; details: in vivo
[23] = AUC (0 to 24 hrs) in BALB/C mouse at 50 mg/kg, ip administered via bolus dose using DMSO formulation measured at 1 to 24 hrs post dose by UV/LC-MS analysis; format: ADME, organism-based; set-up: dose 50 mg/kg, time < 24 hr, route intraperitoneal; details: in vivo
Mus musculus [24] = assay: AUC (0 to infinity) in BALB/C mouse assessed as N-(3-bromophenyl)-1-(2-chloro-2-phenylethyl)-6-(2-morpholinoethylthio)-1H-pyrazolo[3,4-d]pyrimidin-4-amine level at 50 mg/kg administered through oral gavage as methylcellulose formulation measured at 1 to 24 hrs post dose by UV/LC-MS analysis; format: ADME, organism-based; set-up: dose 50 mg/kg, route oral, time infinity; details: in vivo
[25] = Half life in BALB/C mouse at 50 mg/kg, ip administered via bolus dose using DMSO formulation measured at 1 to 24 hrs post dose by UV/LC-MS analysis; format: ADME, organism-based; details: in vivo
Mus musculus [26] = assay: Tmax in BALB/C mouse assessed as N-(3-bromophenyl)-1-(2-chloro-2-phenylethyl)-6-(2-morpholinoethylthio)-1H-pyrazolo[3,4-d]pyrimidin-4-amine level at 50 mg/kg administered through oral gavage as methylcellulose formulation measured at 1 to 24 hrs post dose by UV/LC-MS analysis; format: ADME, organism-based; details: in vivo
cells [27] = details: Homo sapiens, U-87 MG, 72 h
Description: Cytotoxicity against human U87 cells assessed as reduction in cell viability after 72 hrs by trypan blue assay

Mus musculus [28] = assay: AUC (0 to infinity) in BALB/C mouse assessed as N-(3-bromophenyl)-1-(2-chloro-2-phenylethyl)-6-(2-morpholinoethylthio)-1H-pyrazolo[3,4-d]pyrimidin-4-amine level at 50 mg/kg, ip administered via bolus dose using DMSO formulation measured at 1 to 24 hrs post dose by UV/LC-MS analysis; format: ADME, organism-based; set-up: dose 50 mg/kg, time infinity, route intraperitoneal; details: in vivo
Mus musculus [29] = assay: Plasma clearance in BALB/C mouse assessed as N-(3-bromophenyl)-1-(2-chloro-2-phenylethyl)-6-(2-morpholinoethylthio)-1H-pyrazolo[3,4-d]pyrimidin-4-amine level at 50 mg/kg administered through oral gavage as methylcellulose formulation measured at 1 to 24 hrs post dose by UV/LC-MS analysis; format: ADME, organism-based; details: in vivo
cells [30] = details: Homo sapiens, U-87 MG, 48 h
Description: Cytotoxicity against human U87 cells assessed as reduction in cell viability after 48 hrs by trypan blue assay

Mus musculus [31] = assay: Cmax in BALB/C mouse assessed as N-(3-bromophenyl)-1-(2-chloro-2-phenylethyl)-6-(2-morpholinoethylthio)-1H-pyrazolo[3,4-d]pyrimidin-4-amine level at 50 mg/kg, ip administered via bolus dose using DMSO formulation measured at 1 to 24 hrs post dose by UV/LC-MS analysis; format: ADME, organism-based; set-up: dose 50 mg/kg, route intraperitoneal; details: in vivo

ClC(Cn1ncc2c(Nc3cccc(Br)c3)nc(SCCN3CCOCC3)nc21)c1ccccc1 (centres undefined)
CL/F [1]: 0.46 mL/min
Drug uptake (Liver): 1.7 nmol/g
remaining at 1 h, 50 µM [2]: 89.2%
AUC(0-inf) [3]: 79.7 µM·h
MRT (Mus musculus [4]): 46.62 h
MRT (Mus musculus [5]): 11.97 h
Tmax [6]: 0.5 h
t1/2 (Mus musculus [7]): 9.06 h
concentration at 24 h [8]: 2.6 µM
AUC (Mus musculus [9]): 36.69 µM·h
solubility at 24 h (physchem [10]): 3.7 µg/mL (≈ 6.45 µM)
Drug uptake [11]: 51.2 nmol/g
remaining at 1 h, 50 µM [12]: 97.2%
Tmax (Mus musculus [13]): 1.5 h
IC50 (cells [14]): 17.3 µM
MRT [15]: 19.1 h
AUC (Mus musculus [16]): 55.14 µM·h
t1/2 (Mus musculus [17]): 33.3 h
Drug uptake (Kidney): 3.6 nmol/g
Cmax [18]: 6.83 µM
Cmax (Mus musculus [19]): 5.35 µM
CL (Mus musculus [20]): 0.27 mL/min
MST [21]: 44 days
Papp at 5 h, 500 µM (physchem [22]): 7.1 ×10⁻⁶ cm/s
Drug uptake (Brain): 2.7 nmol/g
AUC(0-t) at 24 h [23]: 56.1 µM·h
AUC (Mus musculus [24]): 43.53 µM·h
half-life [25]: 14.8 h
Tmax (Mus musculus [26]): 2 h
IC50 (cells [27]): 1.9 µM
AUC (Mus musculus [28]): 135.11 µM·h
CL (Mus musculus [29]): 1.14 mL/min
IC50 (cells [30]): 6.8 µM
Cmax (Mus musculus [31]): 6.07 µM
